Calls of active or inactive are those of the source.
Key:
[1] = target: Lysosomal acid glucosylceramidase (Homo sapiens, UniProt P04062); test: Dose response cell-based high throughput screening assay to identify enhancers of beta-glucosidase activity. [Related pubchem assays: 784 ]; type: functional
[2] = target: 5-hydroxytryptamine receptor 1A (Homo sapiens, UniProt P08908); type: functional
[3] = target: T1, Protein RecA (Mycobacterium tuberculosis, UniProt P9WHJ3); test: Fluorescence Cell-Free Homogeneous Dose Retest to Identify Inhibitors of RecA-Intein Splicing Activity. [Related pubchem assays (depositor defined):AID2097, AID2223, AID489010, AID492950]; type: functional
T1 sequence (P9WHJ3 whole entry): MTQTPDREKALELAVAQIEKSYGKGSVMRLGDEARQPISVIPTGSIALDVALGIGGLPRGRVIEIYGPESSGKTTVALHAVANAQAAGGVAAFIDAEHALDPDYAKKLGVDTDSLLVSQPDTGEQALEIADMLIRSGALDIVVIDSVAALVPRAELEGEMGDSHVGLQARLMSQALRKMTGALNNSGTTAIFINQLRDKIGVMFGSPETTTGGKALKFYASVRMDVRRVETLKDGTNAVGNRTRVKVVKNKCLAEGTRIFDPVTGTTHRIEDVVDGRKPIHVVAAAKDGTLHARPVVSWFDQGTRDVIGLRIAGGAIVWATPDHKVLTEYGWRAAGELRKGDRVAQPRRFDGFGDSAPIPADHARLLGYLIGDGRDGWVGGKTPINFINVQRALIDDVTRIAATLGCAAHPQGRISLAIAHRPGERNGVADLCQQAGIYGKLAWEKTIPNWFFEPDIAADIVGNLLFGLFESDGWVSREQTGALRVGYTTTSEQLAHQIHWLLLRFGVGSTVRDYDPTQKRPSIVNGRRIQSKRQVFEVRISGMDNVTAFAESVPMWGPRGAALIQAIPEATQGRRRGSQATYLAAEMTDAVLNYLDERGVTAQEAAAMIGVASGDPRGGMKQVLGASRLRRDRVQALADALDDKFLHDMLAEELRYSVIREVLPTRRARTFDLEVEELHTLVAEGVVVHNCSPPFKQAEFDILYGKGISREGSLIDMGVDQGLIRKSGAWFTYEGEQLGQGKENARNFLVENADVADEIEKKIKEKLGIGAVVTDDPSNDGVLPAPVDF

[4] = target: Hexokinase HKDC1 (Homo sapiens, UniProt Q2TB90); test: HKDC1 hexokinase inhibitors, dose response, biochemical, W721R variant (AID 504729); type: functional
Hexokinase HKDC1, sequence (Q2TB90 whole entry): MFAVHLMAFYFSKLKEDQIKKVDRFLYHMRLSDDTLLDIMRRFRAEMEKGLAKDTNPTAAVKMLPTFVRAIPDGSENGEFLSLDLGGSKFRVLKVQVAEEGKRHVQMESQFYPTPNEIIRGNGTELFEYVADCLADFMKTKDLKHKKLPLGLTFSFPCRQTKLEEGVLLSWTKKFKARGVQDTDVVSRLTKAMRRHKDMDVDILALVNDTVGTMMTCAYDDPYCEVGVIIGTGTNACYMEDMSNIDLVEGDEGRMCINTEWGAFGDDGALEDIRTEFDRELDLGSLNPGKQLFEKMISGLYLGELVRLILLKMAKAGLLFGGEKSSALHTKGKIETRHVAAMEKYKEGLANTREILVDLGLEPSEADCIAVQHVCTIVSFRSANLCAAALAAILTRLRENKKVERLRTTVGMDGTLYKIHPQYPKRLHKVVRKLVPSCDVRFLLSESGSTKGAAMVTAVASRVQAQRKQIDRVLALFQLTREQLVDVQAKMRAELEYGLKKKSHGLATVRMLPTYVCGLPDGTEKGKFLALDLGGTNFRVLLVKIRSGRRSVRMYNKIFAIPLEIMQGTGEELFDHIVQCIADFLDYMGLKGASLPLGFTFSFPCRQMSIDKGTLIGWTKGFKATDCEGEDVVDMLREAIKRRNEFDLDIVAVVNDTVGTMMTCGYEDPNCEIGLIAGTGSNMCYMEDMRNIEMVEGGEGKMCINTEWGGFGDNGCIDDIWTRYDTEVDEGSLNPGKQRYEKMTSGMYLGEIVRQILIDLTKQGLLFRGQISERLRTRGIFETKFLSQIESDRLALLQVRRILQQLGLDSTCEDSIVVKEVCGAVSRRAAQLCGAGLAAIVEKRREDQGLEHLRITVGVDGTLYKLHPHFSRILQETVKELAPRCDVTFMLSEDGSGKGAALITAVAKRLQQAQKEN

[5] = target: T2, Replicative DNA helicase DnaB (Mycobacterium tuberculosis, UniProt P9WMR3); test: DnaB intein splicing inhibitors, dose response, biochemical, cell-free fluorescence (AID 449749); type: functional
T2 sequence (P9WMR3 whole entry): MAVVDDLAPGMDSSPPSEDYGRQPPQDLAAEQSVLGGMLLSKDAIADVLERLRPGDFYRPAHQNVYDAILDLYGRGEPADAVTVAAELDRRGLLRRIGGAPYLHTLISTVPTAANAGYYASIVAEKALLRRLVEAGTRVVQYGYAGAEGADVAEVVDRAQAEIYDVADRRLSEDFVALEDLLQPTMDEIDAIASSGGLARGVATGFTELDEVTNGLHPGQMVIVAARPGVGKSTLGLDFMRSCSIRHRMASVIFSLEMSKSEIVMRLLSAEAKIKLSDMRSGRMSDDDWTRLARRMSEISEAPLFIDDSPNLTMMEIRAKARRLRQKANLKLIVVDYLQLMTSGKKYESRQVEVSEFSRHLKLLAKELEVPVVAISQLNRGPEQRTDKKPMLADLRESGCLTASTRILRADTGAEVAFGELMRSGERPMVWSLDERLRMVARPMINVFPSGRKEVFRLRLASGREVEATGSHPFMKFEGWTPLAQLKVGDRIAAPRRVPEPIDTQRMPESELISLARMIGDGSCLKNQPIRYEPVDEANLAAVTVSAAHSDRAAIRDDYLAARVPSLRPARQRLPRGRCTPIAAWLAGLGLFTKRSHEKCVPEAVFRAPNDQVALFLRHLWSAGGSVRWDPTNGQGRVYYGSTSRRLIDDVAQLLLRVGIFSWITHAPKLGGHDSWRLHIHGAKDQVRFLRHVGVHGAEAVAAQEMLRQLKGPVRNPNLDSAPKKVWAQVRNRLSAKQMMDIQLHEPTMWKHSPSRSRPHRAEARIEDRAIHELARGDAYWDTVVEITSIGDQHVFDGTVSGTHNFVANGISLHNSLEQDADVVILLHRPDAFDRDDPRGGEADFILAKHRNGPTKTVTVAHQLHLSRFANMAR

[6] = system: Vibrio harveyi; test: Quorum Sensing, LuxS, LuxPQ Measured in Microorganism System Using Plate Reader - 2035-01_Inhibitor_DoseNoFile_DryPowder_Activity. [Related pubchem assays (depositor defined):AID2106]; type: functional, organism-based
[7] = system: Vibrio harveyi; test: inhibitors of AI-2 quorum sensing in V. harveyi, dose response, LuxS, LuxPQ, dry powder, set 2 (AID 493072); type: functional, organism-based
[8] = target: T3, Short transient receptor potential channel 4 (Mus musculus, UniProt Q9QUQ5); test: mouse TRPC4 channel activators, dose response, cell-based, HEK293 TRPC4/mu-opioid, Fluo-4 calcium (AID 434937); type: functional
T3 sequence (Q9QUQ5 whole entry): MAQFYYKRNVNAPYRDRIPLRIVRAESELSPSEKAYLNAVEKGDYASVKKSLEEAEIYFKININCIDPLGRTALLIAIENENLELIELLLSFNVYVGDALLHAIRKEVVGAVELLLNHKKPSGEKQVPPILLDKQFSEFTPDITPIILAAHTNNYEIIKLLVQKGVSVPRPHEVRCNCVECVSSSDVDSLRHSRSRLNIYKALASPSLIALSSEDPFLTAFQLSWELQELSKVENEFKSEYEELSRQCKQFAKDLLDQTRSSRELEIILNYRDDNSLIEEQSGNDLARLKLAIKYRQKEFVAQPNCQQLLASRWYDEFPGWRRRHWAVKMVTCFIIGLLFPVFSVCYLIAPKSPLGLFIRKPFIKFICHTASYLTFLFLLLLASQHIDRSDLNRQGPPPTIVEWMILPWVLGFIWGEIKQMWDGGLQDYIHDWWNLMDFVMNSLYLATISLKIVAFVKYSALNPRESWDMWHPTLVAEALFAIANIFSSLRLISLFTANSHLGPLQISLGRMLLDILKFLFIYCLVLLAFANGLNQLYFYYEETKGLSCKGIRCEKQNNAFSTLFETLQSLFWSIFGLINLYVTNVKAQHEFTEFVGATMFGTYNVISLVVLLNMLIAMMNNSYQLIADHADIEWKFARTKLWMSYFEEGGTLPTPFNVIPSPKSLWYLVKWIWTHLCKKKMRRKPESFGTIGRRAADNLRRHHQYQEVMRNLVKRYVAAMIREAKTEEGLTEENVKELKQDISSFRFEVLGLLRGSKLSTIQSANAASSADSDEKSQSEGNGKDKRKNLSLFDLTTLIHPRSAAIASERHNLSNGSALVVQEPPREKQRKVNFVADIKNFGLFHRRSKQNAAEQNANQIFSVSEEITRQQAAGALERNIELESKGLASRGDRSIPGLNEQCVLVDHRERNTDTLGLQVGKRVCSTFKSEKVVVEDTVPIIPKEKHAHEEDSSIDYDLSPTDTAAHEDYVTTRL

[9] = target: T4, Dual specificity protein phosphatase 3 (Homo sapiens, UniProt P51452); test: SAR VHR1 Fluorescent Assay for In Vitro dose response studies. [Related pubchem assays (depositor defined):AID1654, AID1661, AID1878, AID1992, AID2004, AID2070, AID2085]; type: functional
T4 sequence (P51452 whole entry): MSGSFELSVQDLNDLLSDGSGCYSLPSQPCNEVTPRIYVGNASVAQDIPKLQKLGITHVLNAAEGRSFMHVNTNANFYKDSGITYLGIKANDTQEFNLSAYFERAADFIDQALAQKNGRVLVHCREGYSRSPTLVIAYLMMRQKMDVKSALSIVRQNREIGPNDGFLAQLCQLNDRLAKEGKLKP

[10] = target: T5, Dual specificity protein phosphatase 6 (Rattus norvegicus, UniProt Q64346)
T5 sequence (Q64346 whole entry): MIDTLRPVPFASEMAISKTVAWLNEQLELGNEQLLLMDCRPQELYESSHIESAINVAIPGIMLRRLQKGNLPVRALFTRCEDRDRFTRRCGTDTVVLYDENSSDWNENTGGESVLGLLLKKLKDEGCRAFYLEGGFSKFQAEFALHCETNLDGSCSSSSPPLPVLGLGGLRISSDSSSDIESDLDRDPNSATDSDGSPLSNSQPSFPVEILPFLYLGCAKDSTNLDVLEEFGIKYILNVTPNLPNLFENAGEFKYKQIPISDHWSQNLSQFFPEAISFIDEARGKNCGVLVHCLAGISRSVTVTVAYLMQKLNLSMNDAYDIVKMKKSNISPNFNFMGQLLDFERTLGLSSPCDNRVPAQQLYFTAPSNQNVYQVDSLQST

[11] = target: T6, Tyrosine-protein phosphatase non-receptor type 7 (Homo sapiens, UniProt P35236); test: redox-dependent HePTP inhibition, mechanism study, biochemical, fluorescence (AID 2068); type: functional
T6 sequence (P35236 whole entry): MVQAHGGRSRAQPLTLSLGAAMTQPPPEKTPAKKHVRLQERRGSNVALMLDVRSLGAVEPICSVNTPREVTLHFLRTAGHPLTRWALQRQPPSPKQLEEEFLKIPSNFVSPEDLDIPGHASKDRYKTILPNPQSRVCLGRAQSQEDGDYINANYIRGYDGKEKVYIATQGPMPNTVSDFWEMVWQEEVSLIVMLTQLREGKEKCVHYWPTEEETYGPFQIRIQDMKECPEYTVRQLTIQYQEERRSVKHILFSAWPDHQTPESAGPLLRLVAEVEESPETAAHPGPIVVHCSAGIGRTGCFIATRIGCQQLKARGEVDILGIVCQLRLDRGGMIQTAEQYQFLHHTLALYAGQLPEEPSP

[12] = target: Glyceraldehyde-3-phosphate dehydrogenase (Homo sapiens, UniProt P04406)
Glyceraldehyde-3-phosphate dehydrogenase, sequence (P04406 whole entry): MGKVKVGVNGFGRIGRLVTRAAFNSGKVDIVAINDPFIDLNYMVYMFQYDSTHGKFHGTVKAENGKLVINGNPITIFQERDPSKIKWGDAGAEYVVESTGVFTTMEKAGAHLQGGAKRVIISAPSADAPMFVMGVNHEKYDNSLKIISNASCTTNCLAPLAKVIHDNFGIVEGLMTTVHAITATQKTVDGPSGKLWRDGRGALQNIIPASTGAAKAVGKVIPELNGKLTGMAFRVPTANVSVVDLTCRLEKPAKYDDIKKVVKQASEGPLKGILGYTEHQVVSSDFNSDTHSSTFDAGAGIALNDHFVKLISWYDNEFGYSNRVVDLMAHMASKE

[13] = target: T6, Tyrosine-protein phosphatase non-receptor type 7; type: functional
[14] = target: T4, Dual specificity protein phosphatase 3; test: MOA VHR1 Fluorescent secondary assay for identification of redox-state modulating compounds. [Related pubchem assays (depositor defined):AID1654, AID1661, AID1878, AID1957]
[15] = target: T5, Dual specificity protein phosphatase 6; type: functional
[16] = target: T4, Dual specificity protein phosphatase 3; test: VHR1 inhibitor Ki determination, SAR follow-up, biochemical, colorimetric (AID 2004)
[17] = target: T7, Alkaline phosphatase, tissue-nonspecific isozyme (Homo sapiens, UniProt P05186)
T7 sequence (P05186 whole entry): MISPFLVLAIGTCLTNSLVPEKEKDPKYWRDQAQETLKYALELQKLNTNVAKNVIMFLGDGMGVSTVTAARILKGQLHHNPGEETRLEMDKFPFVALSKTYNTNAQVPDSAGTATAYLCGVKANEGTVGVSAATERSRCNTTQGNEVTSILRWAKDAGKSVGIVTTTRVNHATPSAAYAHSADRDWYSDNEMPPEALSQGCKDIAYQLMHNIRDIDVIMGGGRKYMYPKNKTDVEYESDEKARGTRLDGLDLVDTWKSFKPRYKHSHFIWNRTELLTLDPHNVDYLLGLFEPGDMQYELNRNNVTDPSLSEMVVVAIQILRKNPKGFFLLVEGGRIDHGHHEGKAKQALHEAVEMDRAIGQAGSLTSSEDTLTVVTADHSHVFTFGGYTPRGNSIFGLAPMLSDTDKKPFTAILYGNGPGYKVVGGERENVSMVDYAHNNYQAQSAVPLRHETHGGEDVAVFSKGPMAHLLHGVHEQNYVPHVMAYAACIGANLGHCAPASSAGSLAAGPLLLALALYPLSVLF

[18] = target: Chaperone protein dnaK (Escherichia coli, UniProt C3TRK2); test: DnaK beta-domain binding affinity, SAR follow-up, orthogonal assay for DnaK modulator project, biophysical, isothermal titration calorimetry, full-length DnaK (AID 1495)
Chaperone protein dnaK, sequence (C3TRK2 whole entry): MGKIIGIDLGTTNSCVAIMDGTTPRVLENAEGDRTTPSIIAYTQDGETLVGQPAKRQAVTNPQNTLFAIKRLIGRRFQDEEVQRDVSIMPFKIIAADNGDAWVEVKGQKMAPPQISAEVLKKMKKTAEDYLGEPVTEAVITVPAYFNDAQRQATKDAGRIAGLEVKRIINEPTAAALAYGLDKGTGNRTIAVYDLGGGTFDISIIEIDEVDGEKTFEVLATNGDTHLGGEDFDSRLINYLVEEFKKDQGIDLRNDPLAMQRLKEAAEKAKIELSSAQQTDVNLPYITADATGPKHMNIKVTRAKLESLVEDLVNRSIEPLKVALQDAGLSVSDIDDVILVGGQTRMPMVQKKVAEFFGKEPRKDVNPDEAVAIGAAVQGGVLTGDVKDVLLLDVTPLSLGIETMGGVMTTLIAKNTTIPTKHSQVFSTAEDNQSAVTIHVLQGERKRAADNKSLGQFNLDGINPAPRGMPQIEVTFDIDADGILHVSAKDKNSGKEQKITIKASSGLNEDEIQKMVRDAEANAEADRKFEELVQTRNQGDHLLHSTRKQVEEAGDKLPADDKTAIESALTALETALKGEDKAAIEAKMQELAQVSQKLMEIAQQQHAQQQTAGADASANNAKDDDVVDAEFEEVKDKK

Lysosomal acid glucosylceramidase, sequence (P04062 whole entry): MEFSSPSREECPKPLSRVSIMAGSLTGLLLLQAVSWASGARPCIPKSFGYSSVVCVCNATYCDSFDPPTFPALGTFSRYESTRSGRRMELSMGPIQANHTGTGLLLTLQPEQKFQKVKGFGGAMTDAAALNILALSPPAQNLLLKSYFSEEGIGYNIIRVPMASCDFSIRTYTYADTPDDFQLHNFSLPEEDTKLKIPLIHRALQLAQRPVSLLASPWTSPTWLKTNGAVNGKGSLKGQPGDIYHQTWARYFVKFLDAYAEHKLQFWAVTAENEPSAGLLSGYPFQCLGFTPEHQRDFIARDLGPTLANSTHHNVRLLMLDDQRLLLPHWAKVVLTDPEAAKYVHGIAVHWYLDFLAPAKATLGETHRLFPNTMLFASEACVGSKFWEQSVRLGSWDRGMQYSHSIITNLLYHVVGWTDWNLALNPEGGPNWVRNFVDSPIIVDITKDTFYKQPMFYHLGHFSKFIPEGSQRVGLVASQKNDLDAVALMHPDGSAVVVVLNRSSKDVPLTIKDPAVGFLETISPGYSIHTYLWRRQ
5-hydroxytryptamine receptor 1A, sequence (P08908 whole entry): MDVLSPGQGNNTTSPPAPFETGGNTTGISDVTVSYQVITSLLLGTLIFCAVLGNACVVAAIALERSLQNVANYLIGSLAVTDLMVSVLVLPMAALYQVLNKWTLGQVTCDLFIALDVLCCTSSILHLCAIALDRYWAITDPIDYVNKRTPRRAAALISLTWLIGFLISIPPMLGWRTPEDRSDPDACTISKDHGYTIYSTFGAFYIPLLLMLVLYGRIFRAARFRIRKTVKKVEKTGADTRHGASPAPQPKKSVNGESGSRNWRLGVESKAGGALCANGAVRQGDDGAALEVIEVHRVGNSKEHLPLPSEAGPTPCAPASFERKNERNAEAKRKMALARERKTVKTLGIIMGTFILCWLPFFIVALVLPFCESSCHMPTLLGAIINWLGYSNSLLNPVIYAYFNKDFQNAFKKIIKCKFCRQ

In the case of `CCc1ccc(NC(=O)Cn2c(SC)nc3ccccc32)cc1`, the EC50 [1] is reported as > 50 µM (not active) and the EC50 [2] is reported as > 50 µM (not active).

For `CC(OC(=O)c1cc(O)c2ccccc2c1O)C(=O)Nc1ccc(C(N)=O)cc1` (centres undefined), the EC50 [3] was 4.51 µM (active), the IC50 [4] was 52.7 µM (inactive) and the AC50 [5] was 5.11 µM (active).

For `C=Cn1c(C(=O)O)ccc1-c1ccc(CC)cc1`, the AC50 [6] was 2.73 µM (active), the AC50 [7] was 5.53 µM (active) and the AC50 ([7]; Vibrio harveyi) was 4.66 µM (active).

With `Cc1cc2nc3s/c(=C/c4ccc(-c5ccccc5C(=O)O)o4)c(=O)n3c2cc1C` the EC50 [8] was 5.96 µM (active), the IC50 [9] was 7.49 µM (active) and the IC50 [10] was 9 µM (active). For the same compound, the IC50 [11] was 2.65 µM (active), the IC50 [12] was > 100 µM (not active) and the IC50 [13] was 3.63 µM (active). The IC50 [14] was 2.39 µM (active) and the IC50 [15] was 26.4 µM (active).

`COc1ccc(C2C3C(=O)N(c4ccccc4)C(=O)C3N3CCCN23)cc1` (centres undefined) was tested, and the Ki [16] was 112 µM (inactive).

`Cc1ccc(O)c(-c2cc(C(=O)NCc3ccccc3)[nH]n2)c1` was tested, and the EC50 [17] was > 100 µM (not active).

`O=C(NCc1ccc(Cl)c(Cl)c1)c1cccs1` was tested, and the Kd [18] was 7.3 µM (active).
